Like-named read-outs stand apart in the source and are kept apart here.

Format in all cases: cell-based, Human
Assay [1] has as its system MCF-7. The experiment in a line: SRB anti-proliferative assay, MCF-7. On the procedure: (§1) The synthesized N-(3,4,5-trimethoxystyryl)aryl)cinnamamides were evaluated for their anti-proliferative activity in selected human cancer cell lines of breast cancer (MCF-7), prostate cancer (DU-145), lung cancer (Hop-62), cervical cancer (Hela), leukemia (K562), ovarian cancer (SK-OV-3), colon cancer (Colo-205), pancreatic (MAIPA-CA-2) by using sulforhodamine B (SRB) method (Vichai, V.; Kirtikara, K. Nat. Protoc. 2006, 1, 1112). […] CA-4 was used as the reference compound.

For assay [2], the system named is DU-145. Nature of the assay: SRB anti-proliferative assay, DU-145. On the procedure: as §1
Assay [3] relates to Hop-62. The experiment in a line: SRB anti-proliferative assay, Hop-62. On the procedure: as §1
Assay [4] relates to Hela. The experiment in a line: SRB anti-proliferative assay, Hela. The following applies: read-out: GI50 Hela. On the procedure:
as §1

The subject of assay [5] is K562. The experiment in a line: SRB anti-proliferative assay, K562. On the procedure: as §1
The test system of assay [6] is SK-OV-3. Nature of the assay: SRB anti-proliferative assay, SK-OV-3. On the procedure:
as §1

The subject of assay [7] is Colo-205. The experiment in a line: SRB anti-proliferative assay, Colo-205. On the procedure:
as §1

The subject of assay [8] is MAIPA-CA-2. Nature of the assay: SRB anti-proliferative assay, MAIPA-CA-2. The note with it: read-out: GI50 MAIPA-CA-2. On the procedure: as §1
[9] abbreviates: Homo sapiens, MCF7, read-out: GI50 MCF-7.
Setting [10] is: Homo sapiens, DU-145, read-out: GI50 DU-145.
The mark [11] stands for this setting: Homo sapiens, HOP-62, read-out: GI50 Hop-62.
Setting [12] is: Homo sapiens, K562, read-out: GI50 K562.
Setting [13] is: Homo sapiens, SK-OV-3, read-out: GI50 SK-OV-3.
[14] abbreviates: Homo sapiens, COLO 205, read-out: GI50 Colo-205.
Setting [15] is: MCF7, Human breast cancer, concentration of drug causing 50% inhibition of cell growth, read-out: GI50 MCF-7.
Setting [16] is: DU-145, Human prostate cancer, concentration of drug causing 50% inhibition of cell growth, read-out: GI50 DU-145.
Setting [17] is: HOP-62, Human lung cancer, concentration of drug causing 50% inhibition of cell growth, read-out: GI50 Hop-62.
The mark [18] stands for this setting: Human cervical cancer, concentration of drug causing 50% inhibition of cell growth.
Where [19] appears, read: K562, Human leukemia, concentration of drug causing 50% inhibition of cell growth, read-out: GI50 K562.
[20] abbreviates: SK-OV-3, Human ovarian cancer, concentration of drug causing 50% inhibition of cell growth, read-out: GI50 SK-OV-3.
[21] abbreviates: COLO 205, Human colon cancer, concentration of drug causing 50% inhibition of cell growth, read-out: GI50 Colo-205.
Setting [22] is: Human pancreatic, concentration of drug causing 50% inhibition of cell growth.

`COc1ccc(C=Cc2cc(OC)c(OC)c(OC)c2)c(NC(=O)/C=C/c2ccc(F)c(F)c2)c1O` [Compound 20aa, (E)-3-(3,4-Difluorophenyl)-N-(2-hydroxy-3-methoxy-6-(3,4,5-trimethoxystyryl)phenyl)acrylamide]: the GI50 in assay [1] (setting [9]) was found to be 31 nM; in assay [2] (setting [10]), 45 nM; in assay [3] (setting [11]), 43600 nM; in assay [4] (Homo sapiens), 29200 nM; in assay [5] (setting [12]), 99 nM; in assay [6] (setting [13]) it was 29800 nM. Moreover, the results for the GI50 in assay [7] (setting [14]) and in assay [8] (Homo sapiens) were 74900 nM and 74000 nM, respectively.
Turning to `COc1ccc(C=Cc2cc(OC)c(OC)c(OC)c2)c(NC(=O)/C=C/c2cc(OC)c(OC)c(OC)c2)c1O` [Compound 20ab, (E)-N-(2-Hydroxy-3-methoxy-6-(3,4,5-trimethoxystyryl)phenyl)-3-(3,4,5-trimethoxyphenyl)acrylamide], the GI50 in assay [1] (setting [9]) amounted to 79 nM; in assay [2] (setting [10]) it was 95 nM; in assay [3] (setting [11]) it was 24800 nM; in assay [4] (Homo sapiens), 14900 nM; in assay [5] (setting [12]), 28000 nM; in assay [6] (setting [13]) it was 20900 nM. In addition, the GI50 came out at 76000 nM in assay [7] (setting [14]) and 64500 nM in assay [8] (Homo sapiens).
For `COc1cccc(/C=C/C(=O)Nc2c(C=Cc3cc(OC)c(OC)c(OC)c3)ccc(OC)c2O)c1` [Compound 20f, (E)-N-(2-Hydroxy-3-methoxy-6-(3,4,5-trimethoxystyryl)phenyl)-3-(3-methoxyphenyl)acrylamide], the GI50 in assay [1] (setting [15]) was 59500 nM; in assay [2] (setting [16]), over 100000 nM; in assay [3] (setting [17]), 65400 nM; in assay [4] (setting [18]), 18100 nM; in assay [5] (setting [19]), 98 nM; in assay [6] (setting [20]), 17600 nM. The values for the GI50 in assay [7] (setting [21]) and in assay [8] (setting [22]) were over 100000 nM and 93900 nM, respectively.
With `COc1ccc(C=Cc2cc(OC)c(OC)c(OC)c2)c(NC(=O)/C=C/c2cccc(O)c2)c1O` [Compound 20g, (E)-N-(2-Hydroxy-3-methoxy-6-(3,4,5-trimethoxystyryl)phenyl)-3-(3-hydroxyphenyl)acrylamide], the GI50 in assay [1] (setting [9]) came to 63 nM; in assay [2] (setting [10]), 70 nM; in assay [3] (setting [11]), 82 nM; in assay [4] (Homo sapiens) it was 94.9 nM; in assay [5] (setting [12]), 94 nM; in assay [6] (setting [13]), 97 nM. Besides, the GI50 in assay [7] (setting [14]) turned out to be 13400 nM; in assay [8] (Homo sapiens) it was 98 nM.
Take `C#CCOc1cccc(/C=C/C(=O)Nc2c(C=Cc3cc(OC)c(OC)c(OC)c3)ccc(OC)c2O)c1` [Compound 20h, (E)-N-(2-Hydroxy-3-methoxy-6-(3,4,5-trimethoxystyryl)phenyl)-3-(3-(prop-2-ynyloxy)phenyl)acrylamide]: the GI50 was 11600 nM in assay [1] (setting [9]); 96400 nM in assay [2] (setting [10]); over 100000 nM in assay [3] (setting [11]); over 100000 nM in assay [4] (Homo sapiens); over 100000 nM in assay [5] (setting [12]); over 100000 nM in assay [6] (setting [13]). Moreover, the GI50 in assay [7] (setting [14]) and in assay [8] (Homo sapiens) was over 100000 nM in each case.
In the case of `C=CCOc1cccc(/C=C/C(=O)Nc2c(C=Cc3cc(OC)c(OC)c(OC)c3)ccc(OC)c2O)c1` [Compound 20i, (E)-3-(3-(Allyloxy)phenyl)-N-(2-hydroxy-3-methoxy-6-(3,4,5-trimethoxystyryl)phenyl)acrylamide], the GI50 in assay [1] (setting [15]) came out at 83 nM; in assay [2] (setting [16]), 85 nM; in assay [3] (setting [17]) it was 60 nM; in assay [4] (setting [18]) it was 78.7 nM; in assay [5] (setting [19]), 91 nM; in assay [6] (setting [20]), 82 nM. Also, the GI50 came out at 18000 nM in assay [7] (setting [21]) and 98 nM in assay [8] (setting [22]).
With `COc1ccc(C=Cc2cc(OC)c(OC)c(OC)c2)c(NC(=O)/C=C/c2ccc(C(F)(F)F)cc2)c1O` [Compound 20n, (E)-N-(2-Hydroxy-3-methoxy-6-(3,4,5-trimethoxystyryl)phenyl)-3-(4-(trifluoromethyl)phenyl)acrylamide], the GI50 in assay [1] (setting [9]) was 83700 nM; in assay [2] (setting [10]), over 100000 nM; in assay [3] (setting [11]), over 100000 nM; in assay [4] (Homo sapiens) it was over 100000 nM; in assay [5] (setting [12]) it was 58000 nM; in assay [6] (setting [13]), over 100000 nM. In addition, the GI50 in assay [7] (setting [14]) and in assay [8] (Homo sapiens) was over 100000 nM throughout.
With `COc1ccc(C=Cc2cc(OC)c(OC)c(OC)c2)c(NC(=O)/C=C/c2ccc([N+](=O)[O-])cc2)c1O` [Compound 20o, (E)-N-(2-Hydroxy-3-methoxy-6-(3,4,5-trimethoxystyryl)phenyl)-3-(4-nitrophenyl)acrylamide], the GI50 was found to be 72 nM in assay [1] (setting [9]); 85 nM in assay [2] (setting [10]); 61 nM in assay [3] (setting [11]); 15700 nM in assay [4] (Homo sapiens); 97 nM in assay [5] (setting [12]); 17000 nM in assay [6] (setting [13]). Moreover, the GI50 worked out at 10300 nM in assay [7] (setting [14]) and 40800 nM in assay [8] (Homo sapiens).
Consider `COc1ccc(C=Cc2cc(OC)c(OC)c(OC)c2)c(NC(=O)/C=C/c2ccc(Cl)cc2)c1O` [Compound 20q, (E)-3-(4-Chlorophenyl)-N-(2-hydroxy-3-methoxy-6-(3,4,5-trimethoxystyryl)phenyl)acrylamide], for which the GI50 worked out at 55500 nM in assay [1] (setting [15]); 54100 nM in assay [2] (setting [16]); 79400 nM in assay [3] (setting [17]); 38800 nM in assay [4] (setting [18]); 24900 nM in assay [5] (setting [19]); 62600 nM in assay [6] (setting [20]). The GI50 in assay [7] (setting [21]) and in assay [8] (setting [22]) was over 100000 nM in each case.
As for `COc1ccc(C=Cc2cc(OC)c(OC)c(OC)c2)c(NC(=O)/C=C/c2ccc(F)cc2)c1O` [Compound 20r, (E)-3-(4-Fluorophenyl)-N-(2-hydroxy-3-methoxy-6-(3,4,5-trimethoxystyryl)phenyl)acrylamide], the GI50 in assay [1] (setting [15]) was found to be 66 nM; in assay [2] (setting [16]), 83 nM; in assay [3] (setting [17]), 43000 nM; in assay [4] (setting [18]), 24000 nM; in assay [5] (setting [19]), 23500 nM; in assay [6] (setting [20]), 47500 nM. Moreover, the GI50 amounted to 67600 nM in assay [7] (setting [21]) and 78100 nM in assay [8] (setting [22]).
For the molecule `COc1ccc(/C=C/C(=O)Nc2c(C=Cc3cc(OC)c(OC)c(OC)c3)ccc(OC)c2O)cc1OC` [Compound 20s, (E)-3-(3,4-Dimethoxyphenyl)-N-(2-hydroxy-3-methoxy-6-(3,4,5-trimethoxystyryl)phenyl)acrylamide], the GI50 in assay [1] (setting [15]) is 56 nM; in assay [2] (setting [16]) it was 60 nM; in assay [3] (setting [17]) it was 90 nM; in assay [4] (setting [18]), 7500 nM; in assay [5] (setting [19]) it was 94 nM; in assay [6] (setting [20]), 99 nM. The GI50 in assay [7] (setting [21]) was 99 nM; in assay [8] (setting [22]) it was 29900 nM.
With `COc1cc(/C=C/C(=O)Nc2c(C=Cc3cc(OC)c(OC)c(OC)c3)ccc(OC)c2O)ccc1O` [Compound 20t, (E)-N-(2-Hydroxy-3-methoxy-6-(3,4,5-trimethoxystyryl)phenyl)-3-(4-hydroxy-3-methoxyphenyl)acrylamide], the GI50 in assay [1] (setting [15]) is 60 nM; in assay [2] (setting [16]), 72 nM; in assay [3] (setting [17]), 79 nM; in assay [4] (setting [18]) it was 90 nM; in assay [5] (setting [19]), 93 nM; in assay [6] (setting [20]), 96 nM. For the same molecule, the GI50 in assay [7] (setting [21]) and in assay [8] (setting [22]) was 98 nM in each case.
In the case of `COc1cc(/C=C/C(=O)Nc2c(C=Cc3cc(OC)c(OC)c(OC)c3)ccc(OC)c2O)ccc1[N+](=O)[O-]` [Compound 20u, (E)-N-(2-Hydroxy-3-methoxy-6-(3,4,5-trimethoxystyryl)phenyl)-3-(3-methoxy-4-nitrophenyl)acrylamide], the concentration for 50% growth inhibition (GI50) in assay [1] (setting [15]) amounted to 95 nM; in assay [2] (setting [16]), 75 nM; in assay [3] (setting [17]) it was 84 nM; in assay [4] (setting [18]), 99 nM; in assay [5] (setting [19]), 96 nM; in assay [6] (setting [20]) it was 7900 nM. Besides, the 50% growth inhibitory concentration (GI50) in assay [7] (setting [21]) stood at 96 nM; in assay [8] (setting [22]), 23500 nM.
For the molecule `COc1cc(/C=C/C(=O)Nc2c(C=Cc3cc(OC)c(OC)c(OC)c3)ccc(OC)c2O)ccc1N` [Compound 20v, (E)-3-(4-Amino-3-methoxyphenyl)-N-(2-hydroxy-3-methoxy-6-(3,4,5-trimethoxystyryl)phenyl)acrylamide], the GI50 is 74 nM in assay [1] (setting [15]); 85 nM in assay [2] (setting [16]); 35 nM in assay [3] (setting [17]); 90 nM in assay [4] (setting [18]); 82 nM in assay [5] (setting [19]); 94 nM in assay [6] (setting [20]). In addition, the GI50 in assay [7] (setting [21]) is 86 nM; in assay [8] (setting [22]) it was 97 nM.
With `COc1ccc(/C=C/C(=O)Nc2c(C=Cc3cc(OC)c(OC)c(OC)c3)ccc(OC)c2O)cc1O` [Compound 20x, (E)-N-(2-hydroxy-3-methoxy-6-(3,4,5-trimethoxystyryl)phenyl)-3-(3-hydroxy-4-methoxyphenyl)acrylamide], the GI50 in assay [1] (setting [15]) worked out at 95 nM; in assay [2] (setting [16]), 117 nM; in assay [3] (setting [17]), 17100 nM; in assay [4] (setting [18]), 15900 nM; in assay [5] (setting [19]) it was 23700 nM; in assay [6] (setting [20]), 1800 nM. Besides, the figures for the GI50 in assay [7] (setting [21]) and in assay [8] (setting [22]) were over 100000 nM and 46300 nM, respectively.
